The values below come from US20250109162A1, “FLEX-NUCLEOSIDE ANALOGUES, NOVEL THERAPEUTICS AGAINST VIRUSES” (UNIVERSITY OF MARYLAND, BALTIMORE COUNTY, priority 2022, published 2025).

A word on the IC50: it is the concentration that inhibits the measured activity by half.

Data set [1] in a line: in vitro.
The subject of data set [2] is BK, Gardner. The experiment in a line: microbe, parasite or virus in culture. The class given is cell-based, BK virus (aka Human polyomavirus 1). The following applies: Betapolyomavirus hominis.
For data set [3], the system named is HHV-6B, Z29. As to the kind of experiment: microbe, parasite or virus in culture. The class given is cell-based, human herpesvirus 6. The following applies: Human betaherpesvirus 6, MOLT-3.
Data set [4] has as its system HBV. The experiment in a line: HBV (Tavis) EC50 (Table 8). The class given is cell-based. The following applies: Hepatitis B virus.
The test system of data set [5] is EBOV (VP30, Huh). As to the kind of experiment: microbe, parasite or virus in culture. The following applies: Zaire ebolavirus. The class given is cell-based, Ebola Virus.
The nature of data set [6]: Cytotoxicity in HBV (Tavis) assay (Table 8). The class given is cell-based.
The test system of data set [7] is Epstein-Barr virus, strain Akata. The experiment in a line: microbe, parasite or virus in culture. The class given is cell-based. The following applies: for EC90: read-out: EC90 - compound concentration that reduces viral replication by 90%.
Data set [8] has as its system Akata cells. The following applies: human.
The subject of data set [9] is Ebola Virus, strain Zaire. The class given is cell-based.
The test system of data set [10] is Chikungunya Virus, strain S27, ATCC VR-64. As to the kind of experiment: microbe, parasite or virus in culture. The class given is cell-based.
Data set [11] concerns Enterovirus. As to the kind of experiment: microbe, parasite or virus in culture. The class given is cell-based.
Data set [12] relates to Huh7 cells.
For data set [13], the system named is Vero cells. The following applies: African green monkey.
In data set [14] the test system is CHIKV. The experiment in a line: CHIKV IC50 (Table 8). The class given is cell-based. The following applies: Chikungunya virus.
The test system of data set [15] is DENV2. The experiment in a line: DENV2 IC50 (Table 8). The class given is cell-based, Dengue Virus 2. The following applies: Dengue virus.
Data set [16] deals with MERS Coronavirus, strain EMC. The class given is cell-based.
Data set [17] has as its system Vero 76 cells.
The subject of data set [18] is HVero 76 cells.
The subject of data set [19] is Dengue Virus 2, strain New Guinea C. The class given is cell-based.
For data set [20], the system named is HPV11 replicon. The class given is cell-based, Human papillomavirus.
[21] abbreviates: human gammaherpesvirus 4, Akata.

Structures are written as SMILES. “And” between values parts separate entries of the source, which are not always exact repeats. Equal entries are not always repeated. Where two headings read alike, the source gives them in different places.

`O=c1[nH]c(=O)n([C@@H]2C[C@@H](O)[C@H](CO)O2)cc1-c1cccs1` [CHK-02, 1-((2S,4R,5S)-4-hydroxy-5-(hydroxymethyl)tetrahydrofuran-2-yl)-5-(thiophen-2-yl)pyrimidine-2,4(1H,3H)-dione]: the CC50 is over 150 µM in data set [1] and over 32 µM in [6]. Besides, the EC50 was under 0.048 µM in [2]; 11.1 µM in data set [3]; under 0.32 µM in data set [4]; 20.6 µM in data set [5]; 10.7 µM in [7] (setting [21]).

In data set [8], `Cc1ccc(-c2cn([C@@H]3C[C@@H](O)[C@H](CO)O3)c(=O)[nH]c2=O)s1` [CHK-03, 1-((2S,4R,5S)-4-hydroxy-5-(hydroxymethyl)tetrahydrofuran-2-yl)-5-(5-methylthiophen-2-yl)pyrimidine-2,4(1H,3H)-dione] had a CC50 of over 100 µM.

In the case of `Nc1nc(=O)n([C@@H]2C[C@@H](O)[C@H](CO)O2)cc1-c1ccco1` [CHK-05, 4-amino-5-(furan-2-yl)-1-((2S,4R,5S)-4-hydroxy-5-(hydroxymethyl)tetrahydrofuran-2-yl)pyrimidin-2(1H)-one], the EC50 is 18 µM in data set [9], over 42 µM in data set [10], over 68 µM in [10] (Chikungunya virus) and 24 µM in data set [11]. Besides, the CC50 in [12] (human), in data set [13] and in [8] was over 100 µM throughout. Moreover, in [7] (setting [21]), the EC90 was over 100 µM.

With `Nc1nc(=O)n([C@@H]2C[C@@H](O)[C@H](CO)O2)cc1-c1cccs1` [CHK-06, 4-amino-1-((2S,4R,5S)-4-hydroxy-5-(hydroxymethyl)tetrahydrofuran-2-yl)-5-(thiophen-2-yl)pyrimidin-2(1H)-one], in data set [14], half-maximal inhibition (IC50) was put at 76.2 µM.

In turn, `Cc1ccc(-c2cn([C@@H]3C[C@@H](O)[C@H](CO)O3)c(=O)nc2N)o1` [CHK-08, 4-amino-1-((2S,4R,5S)-4-hydroxy-5-(hydroxymethyl)tetrahydrofuran-2-yl)-5-(5-methylfuran-2-yl)pyrimidin-2(1H)-one] gave an IC50 in data set [15] of 74 µM.

`Nc1ccn(C[C@@H](CO)OCP(=O)(O)O)c(=O)n1` [Cidofovir, reference compound]: in [7] (read-out: EC50 - compound concentration that reduces viral replication by 50%), the EC50 is 5.94 µM. In addition, in data set [7], the EC90 amounted to 73.5 µM.

Take `O=c1nc(NO)ccn1[C@@H]1O[C@H](CO)[C@@H](O)[C@H]1O` [EIDD-1931]: the EC50 in data set [16] was 0.036 µg/mL and 0.034 µg/mL. For the same compound, the values for the CC50 in data set [17] and in data set [18] were over 10 µg/mL and over 100 µg/mL, respectively.

The compound `NC(=O)c1nc(F)c[nH]c1=O` [Favipiravir, reference compound] yielded a CC50 in [13] of over 1000 µM.

`C#C[C@@]1(O)[C@H](O)[C@@H](CO)O[C@H]1n1ccc2c(N)ncnc21` [NITD008] showed a CC50 in data set [12] of over 100 µM. In addition, the EC50 in data set [19] was 0.36 µM and 0.43 µM.

In the case of `Nc1nc2c(ncn2CCOCP(=O)(O)O)c(=O)[nH]1` [PMEG], in data set [20], the EC50 lay within 2 to 9.2 µM.
